“Also recorded” adds a separate entry of the source.
How the values were obtained:
[1] = tested on: rat pituitary somatotrope cell lines; design: method as in PMID 15296479; details: cited from earlier work
p-Akt = test: Akt phosphorylation by western blot in GH-omas; format: cell-based, human; details: 100 nM, 8 minutes, p-Akt/total Akt vs vehicle (100%), n = 4
Protocol: (§1) Pituitary adenoma specimens were dispersed into single cells by enzymatic and mechanical disruption and cultured onto tissue culture plates in serum containing medium, as previously described. Briefly, pituitary samples were resected by endoscopic transsphenoidal surgery and transferred to sterile cold (4°C) culture medium (S-MEM, Gibco, Madrid, Spain) supplemented with 0.1% BSA, 0.01% L-glutamine, 1% antibiotic-antimycotic solution, and 2.5% HEPES. Samples were minced under sterile conditions into 1–2 mm^3 pieces. Some pieces were stored at −80°C for posterior RNA isolation and, when possible, the remaining tissue samples were washed and incubated in 30 mL S-MEM medium supplemented 0.3% trypsin (Beckson, Dickinson and Company, Sparks, MD, USA) in a spinner flask (Bellco Glass, Vineland, NJ, USA) for 2 h of gentle shaking at 37°C and then, incubation was continued for another 5 min in presence of 1 mg of DNAse I (Roche, Mannheim, Germany). Dispersed cells were decanted by centrifugation and then, by repeated aspiration into a smoothtipped glass Pasteur pipette. Cells suspensions were washed once in 4.5 g/L glucose containing DMEM medium (Gibco, Madrid, Spain) supplemented with 0.1% BSA, 0.01% L-glutamine, 1% antibiotic-antimycotic solution, and 2.5% HEPES. […]

p-ERK1/2 = test: ERK1/2 phosphorylation by western blot in GH-omas; format: cell-based, human; details: 100 nM, 8 minutes, p-ERK1/2/total ERK1/2 vs vehicle (100%), n = 4
Protocol: as §1

GH-omas [2] = test: cell viability of GH-oma primary cultures, peptide treatment; format: cell-based, human; details: 100 nM, alamar-blue
Protocol: Pituitary adenoma specimens were dispersed into single cells by enzymatic and mechanical disruption and cultured onto tissue culture plates in serum containing medium, as previously described. Briefly, pituitary samples were resected by endoscopic transsphenoidal surgery and transferred to sterile cold (4°C) culture medium (S-MEM, Gibco, Madrid, Spain) supplemented with 0.1% BSA, 0.01% L-glutamine, 1% antibiotic-antimycotic solution, and 2.5% HEPES. Samples were minced under sterile conditions into 1–2 mm^3 pieces. Some pieces were stored at −80°C for posterior RNA isolation and, when possible, the remaining tissue samples were washed and incubated in 30 mL S-MEM medium supplemented 0.3% trypsin (Beckson, Dickinson and Company, Sparks, MD, USA) in a spinner flask (Bellco Glass, Vineland, NJ, USA) for 2 h of gentle shaking at 37°C and then, incubation was continued for another 5 min in presence of 1 mg of DNAse I (Roche, Mannheim, Germany). Dispersed cells were decanted by centrifugation and then, by repeated aspiration into a smoothtipped glass Pasteur pipette. Cells suspensions were washed once in 4.5 g/L glucose containing DMEM medium (Gibco, Madrid, Spain) supplemented with 0.1% BSA, 0.01% L-glutamine, 1% antibiotic-antimycotic solution, and 2.5% HEPES. Cell number and viability was estimated by the Trypan blue exclusion test in Neubauer chamber, where viability was always 90–100%.
As previously reported, cell viability was estimated using alamar-blue reagent (10,000 cells/well-plate; Biosource International, Camarillo, CA, USA)[30][50][52]. Briefly, cells were serum-starved for 12–16 h before the measurements and treated with serum-free medium containing 10% alamar-blue for 3 h. Reduction of alamar-blue reagent was quantified exciting at 560 nm and reading at 590 nm using the FlexStation III system (Molecular Devices, Sunnyvale, CA, USA). Subsequently, media was replaced by serum-containing alamar-blue free medium and incubated for additional 24–72 h, measuring the alamar-blue reduction every 24 h. […]

GH-omas [3] = test: GH secretion from GH-oma primary cultures; format: cell-based, human; details: 100 nM; 4 h and 24 h; ELISA; % of vehicle; n = 3–7
Protocol: (§2) Pituitary adenoma specimens were dispersed into single cells by enzymatic and mechanical disruption and cultured onto tissue culture plates in serum containing medium, as previously described. Briefly, pituitary samples were resected by endoscopic transsphenoidal surgery and transferred to sterile cold (4°C) culture medium (S-MEM, Gibco, Madrid, Spain) supplemented with 0.1% BSA, 0.01% L-glutamine, 1% antibiotic-antimycotic solution, and 2.5% HEPES. Samples were minced under sterile conditions into 1–2 mm^3 pieces. […]
(§3) To examine the effects of ghrelin system components (4- and/or 24 h-incubation) on pituitary hormone release from primary pituitary adenoma and/or AtT-20 cell line, 100,000–200,000 cell/well were used. As previously reported, hormone concentrations were measured in the culture media derived from human samples according to the pituitary adenoma type using commercial ELISAs [growth hormone, GH; adrenocorticotropin, ACTH; and prolactin, PRL (reference numbers: EIA-3552, EIA-3647 and EIA-1291, respectively; DRG, Mountainside, NJ, USA)] following the manufacturer's instructions. […]

ACTH-omas = test: ACTH secretion from ACTH-oma primary cultures; format: cell-based, human; details: 100 nM; 24 h; ELISA; % of vehicle; n = 3–9
Protocol: as §2, §3

[4] = tested on: PRL-omas (tumoral pituitary cells); test: free cytosolic calcium kinetics ([Ca^2+]i), PRL-oma cells; format: cell-based, human; details: fura-2AM
Protocol: as §2
As previously reported, changes in [Ca^2+]i in single cells were measured using fura-2AM (50,000 cells/coverslip; Molecular Probes, Eugene, OR)[23][30]. […] Cells were examined for changes in [Ca^2+]i after the appropriate treatment (native ghrelin, In1-19 or In1-40) using a 40× objective with Immersion Oil Type NF (Nikon, Tokyo, Japan) while exposed to alternating 340–380 nm light beams, and the intensity of light emission at 505 nm was measured every 5 seconds using MetaFluor Software (Imaging Corp., West Chester, PA, USA). […] Changes in [Ca^2+]i in CHO-K1 cell line expressing recombinant GHSR1a or GHSR1b receptor were measured using Calcium 4 Explorer Kit (Molecular Devices, Sunnyvale, CA, USA). […] Fluorescent signals were then monitored using the FLIPR Tetra (Molecular Devices, Sunnyvale, CA, USA) during which cells were stimulated with compounds. […]

SMILES: CCCCCCCC(=O)OC[C@H](NC(=O)[C@H](CO)NC(=O)CN)C(=O)N[C@@H](Cc1ccccc1)C(=O)N[C@@H](CC(C)C)C(=O)N[C@@H](CO)C(=O)N1CCC[C@H]1C(=O)N[C@@H](CCC(=O)O)C(=O)N[C@@H](Cc1c[nH]cn1)C(=O)N[C@@H](CCC(N)=O)C(=O)N[C@@H](CCCNC(=N)N)C(=O)N[C@H](C(=O)N[C@@H](CCC(N)=O)C(=O)N[C@@H](CCC(N)=O)C(=O)N[C@@H](CCCNC(=N)N)C(=O)N[C@@H](CCCCN)C(=O)N[C@@H](CCC(=O)O)C(=O)N[C@@H](CO)C(=O)N[C@@H](CCCCN)C(=O)N[C@@H](CCCCN)C(=O)N1CCC[C@H]1C(=O)N1CCC[C@H]1C(=O)N[C@@H](C)C(=O)N[C@@H](CCCCN)C(=O)N[C@@H](CC(C)C)C(=O)N[C@@H](CCC(N)=O)C(=O)N1CCC[C@H]1C(=O)N[C@@H](CCCNC(=N)N)C(=O)O)C(C)C [AG]
- cell proliferation [1]: can stimulate cell proliferation
- p-Akt levels (p-Akt): increased both, p-ERK1/2 as well as p-Akt, levels
- p-ERK1/2 levels (p-ERK1/2): clear increase; also recorded: increased both, p-ERK1/2 as well as p-Akt, levels
- cell viability (GH-omas [2]; 48 h, n = 5–17): significantly increased
- cell viability (GH-omas [2]; 72 h, n = 5–17): significantly increased
- cell viability (GH-omas [2]; time not given): modestly increased GH-oma cell viability
- GH secretion (GH-omas [3]): similarly and significantly, increased GH secretion; also recorded: promoted GH secretion
- ACTH secretion (ACTH-omas): significantly increased ACTH secretion
- [Ca^2+]i response (in words) [4]: only a low proportion of these pituitary adenoma cells altered their [Ca^2+]i
- # samples ([4]; responsive/tested samples, 217 / 160 / 88 cells analyzed for AG / In1-19 / In1-40, peptides 100 nM (abstract)): 2/6

From publication PMC4649711, “In1-ghrelin splicing variant is overexpressed in pituitary adenomas and increases their aggressive features” (Scientific Reports, 2015)
